Measurements taken from patent publication US20230012368A1 (Hoffmann-La Roche Inc., priority 2018, published 2023).
Structures can show the parent of a compound that is named as a salt.

These compounds were tested on Acinetobacter baumannii ATCC 17978 (assay: Antimicrobial susceptibility testing: 90% growth inhibitory concentration (IC90) determination). Conditions: 90% growth inhibitory concentration; Acinetobacter baumannii ATCC17978; Iso-Sensitest broth, OD 600 nm over 16h; read-out: ATCC17978 IC90.
Assay type: cell-based
How it was run: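 Compounds serially twofold diluted (e.g. 50 to 0.097 μM final) in Iso-Sensitest broth, inoculated at ~5×10^(5) CFU/ml, incubated at 35±2° C. OD600 read every 20 minutes over 16h. IC90 taken as concentration inhibiting 90% of growth during logarithmic phase.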

| SMILES | IC90 [nM] |
| --- | --- |
| CCc1cc(Nc2nccn3c(-c4ccc(Oc5ncccn5)c(F)c4F)cnc23)ccc1C(=O)NCCNC(=O)[C@H](N)CCNC(=N)N [Example 439, N-[2-[[(2R)-2-amino-4-guanidino-butanoyl]amino]ethyl]-4-[[3-(2,3-difluoro-4-pyrimidin-2-yloxy-phenyl)imidazo[1,2-a]pyrazin-8-yl]amino]-2-ethyl-benzamide; formic acid] | 340 |
| CCc1cc(Nc2nccn3c(-c4ccc(OC)c(F)c4F)cnc23)ccc1C(=O)NCCCNC(=O)[C@@H](N)CCCNC(=N)N [Example 343, N-[3-[[(2S)-2-amino-5-carbamimidamidopentanoyl]amino]propyl]-4-[[3-(2,3-difluoro-4-methoxyphenyl)imidazo[1,2-a]pyrazin-8-yl]amino]-2-ethylbenzamide;2,2,2-trifluoroacetic acid] | 750 |
| CCc1cc(Nc2nccn3c(-c4ccc(OC)c(F)c4F)cnc23)ccc1C(=O)N[C@@H](CCN)C(=O)OC [Example 322, methyl (2S)-4-amino-2-[[4-[[3-(2,3-difluoro-4-methoxyphenyl)imidazo[1,2-a]pyrazin-8-yl]amino]-2-ethylbenzoyl]amino]butanoate; hydrochloride] | 4400 |
| COc1ccc(-c2cnc3c(Nc4ccc(C(=O)NCCN5CCNCC5)c(C)c4)nccn23)c(F)c1F [Example 56, 4-((3-(2,3-difluoro-4-methoxyphenyl)imidazo [1,2-a]pyrazin-8-yl)amino)-2-methyl-N-(2-(piperazin-1-yl)ethyl)benzamide hydrochloride] | 250 |

Same assay, conditions: Acinetobacter baumannii, ATCC17978, 16 h, 90% growth inhibitory concentration; Acinetobacter baumannii ATCC17978; Iso-Sensitest broth, OD 600 nm over 16h; read-out: ATCC17978 IC90

| IC90 [nM] | SMILES |
| --- | --- |
| 320 | CCc1cc(Nc2nccn3c(-c4ccc(OC)c(F)c4F)cnc23)ccc1C(=O)NCCNC(=O)[C@@H](N)CCCNC(N)=O [Example 332, N-[2-[[(2S)-2-amino-5-(carbamoylamino)pentanoyl]amino]ethyl]-4-[[3-(2,3-difluoro-4-methoxyphenyl)imidazo[1,2-a]pyrazin-8-yl]amino]-2-ethylbenzamide] |
| 210 | CCc1cc(Nc2nccn3c(-c4ccc(OC(F)F)c(F)c4F)cnc23)ccc1C(=O)N[C@@H](C)CNC(=O)C1CCNCC1 (racemic) [Example 552, rac-(R)-N-(2-(4-((3-(4-(difluoromethoxy)-2,3-difluorophenyl)imidazo[1,2-a]pyrazin-8-yl)amino)-2-ethylbenzamido)propyl)piper-idine-4-carboxamide formate] |
| 1100 | Cc1cc(Nc2nccn3c(-c4ccc(OC(F)F)cc4)cnc23)ccc1C(=O)NCCN1CCNC(=O)C1 [Example 221, 4-[[3-[4-(difluoromethoxy)phenyl]im-idazo[1,2-a]pyrazin-8-yl]amino]-2-methyl-N-[2-(3-oxopiperazin-1-yl)ethyl]benzamide] |
| 930 | COc1ccc(-c2cnc3c(Nc4ccc(C(=O)NCCC5(O)CCNCC5)c(C)c4)nccn23)cc1F [Example 281, 4-[[3-(3-fluoro-4-methoxyphenyl)imidazo[1,2-a]pyrazin-8-yl]amino]-N-[2-(4-hydroxypiperidin-4-yl)ethyl]-2-methylbenzamide;2,2,2-trifluoroacetic acid] |
| 960 | COc1ccc(-c2cnc3c(Nc4ccc(C(=O)N(C)CCc5ncc[nH]5)c(C)c4)nccn23)cc1F [Example 112, 4-[[3-(3-fluoro-4-methoxy-phenyl)imidazo[1,2-a]pyrazin-8-yl]amino]-N-[2-(1H-imidazol-2-yl)ethyl]-N,2-dimethyl-benzamide] |
| 140 | CCc1cc(Nc2nccn3c(-c4ccc(OC)c(F)c4F)cnc23)ccc1C(=O)NCCNC(=O)[C@@H]1C[C@@H](O)CN1 [Example 370, (2S,4R)-N-[2-[[4-[[3-(2,3-difluoro-4-methoxyphenyl)imidazo[1,2-a]pyrazin-8-yl]amino]-2-ethylbenzoyl]amino]ethyl]-4-hydroxypyrrolidine-2-carboxamide] |
| 50 | CCc1cc(Nc2nccn3c(-c4ccc(OC)c(F)c4F)cnc23)ccc1C(=O)NCCCNC(=O)C1CNC(=N)N1 (stereo not shown) [Example 356, N-[3-[[4-[[3-(2,3-difluoro-4-methoxyphenyl)imidazo[1,2-a]pyrazin-8-yl]amino]-2-ethylbenzoyl]amino]propyl]-2-iminoimidazolidine-4-carboxamide] |
| 3600 | COc1ccc(-c2cnc3c(Nc4ccc(C(=O)N(C)CCN(C)C)cc4)nccn23)cc1Cl [Example 28, 4-((3-(3-chloro-4-methoxyphenyl)imidazo [1,2-a]pyrazin-8-yl)amino)-N-(2-(dimethylamino)ethyl)-N-methylbenzamide] |
| 690 | COc1ccc(-c2cnc3c(Nc4cc(C)c(C(=O)NCCCN)c(F)c4)nccn23)c(F)c1F [Example 427, N-(3-aminopropyl)-4-((3-(2,3-difluoro-4-methoxyphenyl)imidazo[1,2-a]pyrazin-8-yl)amino)-2-fluoro-6-methylbenzamide formate] |
| 1700 | COc1ccc(-c2cnc3c(Nc4ccc(C(=O)N(C)CCN)c(C)c4)nccn23)cc1 [Example 32, N-(2-aminoethyl)-4-((3-(4-methoxyphenyl)imidazo [1,2-a]pyrazin-8-yl)amino)-N,2-dimethylbenzamide] |
| 130 | CN(CCC1CCNCC1)C(=O)c1ccc(Nc2nccn3c(-c4ccc(OCC#N)c(F)c4F)cnc23)cc1Cl [Example 78, 2-chloro-4-[[3-[4-(cyanomethoxy)-2,3-difluoro-phenyl]imidazo[1,2-a]pyrazin-8-yl]amino]-N-methyl-N-[2-(4-piperidyl)ethyl] benzamide; 2,2,2-trifluoroacetic acid] |
| 500 | CCc1cc(Nc2nccn3c(-c4ccc(Oc5ccncn5)c(F)c4F)cnc23)ccc1C(=O)NCCNC(=O)CCN [Example 432, N-[2-(3-aminopropanoylamino)ethyl]-4-[[3-(2,3-difluoro-4-pyrimidin-4-yloxy-phenyl)imidazo[1,2-a]pyrazin-8-yl]amino]-2-ethyl-benzamide; formic acid] |
| 120 | COc1ccc(-c2cnc3c(Nc4ccc(C(=O)N[C@@H](C)CNC(C)=N)c(Cl)c4)nccn23)c(F)c1F [Example 487, 2-chloro-4-[[3-(2,3-difluoro-4-methoxyphenyl)imidazo[1,2-a]pyrazin-8-yl]amino]-#N!- [(2#S!)-1-(ethanimidoylamino)propan-2-yl]benzamide;formic acid] |
| 620 | CCc1cc(Nc2nccn3c(-c4ccc(OC(F)F)c(F)c4F)cnc23)ccc1C(=O)NCC1(O)CNC1 [Example 307, 4-[[3-[4-(difluoromethoxy)-2,3-difluorophenyl]imidazo[1,2-a]pyrazin-8-yl]amino]-2-ethyl-N-[(3-hydroxyazetidin-3-yl)methyl]benzamide;hydro-chloride] |
| 1300 | CCc1cc(Nc2nccn3c(-c4ccc(Cl)cc4Cl)cnc23)ccc1C(=O)NCCNC(=O)[C@H](N)CCCNC(=N)N [Example 351, N-[2-[[(2R)-2-amino-5-carbamimidamidopentanoyl]amino]ethyl]-4-[[3-(2,4-dichlorophenyl)imidazo[1,2-a]pyrazin-8-yl]amino]-2-ethylbenzamide;formic acid] |
| 7700 | Cc1cc(Nc2nccn3c(-c4ccc(OC(F)F)cc4)cnc23)ccc1C(=O)N[C@H](C)CN [Example 270, N-[(2R)-1-aminopropan-2-yl]-4-[[3-[4-(difluoromethoxy)phenyl]im-idazo[1,2-a]pyrazin-8-yl]amino]-2-methylbenzamide;hydrochlo-ride] |
| 900 | Cc1cc(Nc2nccn3c(-c4ccc(OC(F)F)cc4)cnc23)ccc1C(=O)N(C)CCCSc1nnnn1CCN(C)C [Example 177, 4-[[3-[4-(difluoromethoxy)phenyl]im-idazo[1,2-a]pyrazin-8-yl]amino]-N-[3-[1-[2-(dimethylamino)ethyl]tetrazol-5-yl]sulfanylpropyl]-N,2-dimethylbenzamide;2,2,2-trifluoroacetic acid] |
| 180 | CCc1cc(Nc2nccn3c(-c4ccc(OC)c(F)c4F)cnc23)ccc1C(=O)NCCCNC(=O)NCCN [Example 119, N-[3-(2-aminoethylcarbamoylamino)propyl]-4-[[3-(2,3-difluoro-4-methoxy-phenyl)imidazo[1,2-a]pyrazin-8-yl]amino]-2-ethyl-benzamide] |
| 171 | COc1ccc(-c2cnc3c(Nc4ccc(C(=O)NCCCCCCCN)c(Cl)c4)nccn23)c(F)c1F [Example 518, N-(7-aminoheptyl)-2-chloro-4-((3-(2,3-difluoro-4-methoxyphenyl)imidazo[1,2-a]pyrazin-8-yl)amino)benzamide hydrochloride] |
| 170 | CNC(=O)c1ccc(Nc2nccn3c(-c4ccc(OC(F)F)cc4)cnc23)cc1C [Example 26] |
| 180 | COc1ccc(-c2cnc3c(Nc4ccc(C(=O)N(C)CCC5CCNCC5)c(C)c4)nccn23)cc1 [Example 182, 4-[[3-(4-methoxyphenyl)imidazo[1,2-a]pyrazin-8-yl]amino]-N,2-dimethyl-N-(2-piperidin-4-ylethyl)benzamide; hydrochlo-ride] |
| 230 | CNC(=O)c1ccc(Nc2nccn3c(-c4ccc(Cl)cc4)cnc23)cc1C [Example 185, 4-[[3-(4-chlorophenyl)imidazo[1,2-a]pyrazin-8-yl]amino]-N,2-dimethylbenzamide] |
| 250 | CCc1cc(Nc2nccn3c(-c4ccc(OC)c(F)c4F)cnc23)ccc1C(=O)NCC(N)CC (stereo not shown) [Example 523, N-(2-aminobutyl)-4-((3-(2,3-difluoro-4-methoxyphenyl)imidazo[1,2-a]pyrazin-8-yl)amino)-2-ethylbenzamide hydrochloride] |
| 610 | C=Cc1cc(Nc2nccn3c(-c4ccc(OC(F)F)cc4)cnc23)ccc1C(=O)NC [Example 92, 4-((3-(4-(difluoromethoxy)phenyl)imidazo[1,2-a]pyrazin-8-yl)amino)-N-methyl-2-vinylbenzamide] |
